Assay results reported in patent US9745274B2, “Compound, organic cation transporter 3 detection agent, and organic cation transporter 3 activity inhibitor” (SHIN NIPPON BIOMEDICAL LABORATORIES, LTD., priority 2013, dated 2017).
One block for each compound: values may come before it.

Legend:
[1] = molecular target: T1, human organic cation transporter 3 (hOCT3) (Homo sapiens, UniProt O75751); assay: Histamine incorporation experiment in HEK293 cells expressing hOCT3 (OCT3 inhibition activity); type: cell-based; conditions: for OCT3 Inhibition Rate (%): Tables 3-1 to 3-15, in a manner similar to Example 12 (30 μM there), concentration not given in the tables; for remaining activity at 10 µM / remaining activity at 30 µM: HEK293, 1 min, no inhibitor = 100%, read-out: Histamine Incorporation Rate to Control (%); for remaining activity at 10 µM / inhibition at 10 µM: Compound Concentration 10 μM; for remaining activity at 30 µM / inhibition at 30 µM: Compound Concentration 30 μM; for remaining activity at 30 µM: [3H]histamine 100 nM, 1 minute; for inhibition at 10 µM / inhibition at 30 µM: HEK293, 100% minus histamine incorporation rate
T1 construct: expressed in transfected cells; host or cells: HEK293
T1 sequence (O75751 1-556): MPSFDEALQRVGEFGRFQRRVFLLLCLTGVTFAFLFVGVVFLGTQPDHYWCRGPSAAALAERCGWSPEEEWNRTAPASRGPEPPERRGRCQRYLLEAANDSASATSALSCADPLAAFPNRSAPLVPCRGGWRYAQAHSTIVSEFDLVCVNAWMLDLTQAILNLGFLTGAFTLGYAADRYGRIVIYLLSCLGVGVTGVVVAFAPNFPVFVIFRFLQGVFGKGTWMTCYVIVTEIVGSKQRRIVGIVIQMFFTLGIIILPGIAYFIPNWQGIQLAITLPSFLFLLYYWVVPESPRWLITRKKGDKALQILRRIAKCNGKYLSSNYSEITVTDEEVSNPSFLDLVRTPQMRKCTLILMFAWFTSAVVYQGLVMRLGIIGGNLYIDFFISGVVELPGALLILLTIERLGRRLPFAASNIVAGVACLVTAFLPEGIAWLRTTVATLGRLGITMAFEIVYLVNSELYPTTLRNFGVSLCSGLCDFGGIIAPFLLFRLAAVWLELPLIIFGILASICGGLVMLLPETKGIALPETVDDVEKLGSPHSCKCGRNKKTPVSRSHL
Procedure: In order to measure an activity that inhibits OCT3 from incorporating a substrate (OCT3 inhibition activity) for each compound, histamine incorporation experiments as described below were performed.
Histamine incorporation experiments were performed in accordance with a method disclosed in Br J Pharmacol. 2002; 136(6): 829-836. In the experiments, HEK293 cells were used. The HEK293 cell is a human embryonal renal cell strain expressing human organic cation transporter 3 (hOCT3). The HEK 293 cells were inoculated onto 24-well plates at 1.5×10^5 cells/well, and were cultivated overnight in a carbon dioxide incubator. Test substances were dissolved in 100% DMSO solution and then dissolved in HBSS-HEPES solution (buffer solution prepared by dissolving 9.7 g Hank's Balanced Salt, 1.4% sodium bicarbonate 25 mL, and 1M HEPES 25 mL in 940 mL ultra pure water, and by adjusting to pH7.4 with 1M sodium hydroxide). After removing culture media for cell culture, pretreatment was performed for 5 minutes with 1 mL HBSS-HEPES solution. Then, the test substance and [3H]histamine (final concentration 100 nM) were added to the cells and reacted for 1 minute at room temperature. After the reaction was completed, the reaction was stopped by ice-cooled HBSS-HEPES solution, extracellular fluid was aspirated by an aspirator, and then the cells were washed twice with HBSS-HEPES. After washing, the cells were dissolved in 0.5M sodium hydroxide solution. The amount of histamine in the cells was found by measuring a radioactivity in a cell lysis solution by a liquid scintillation counter. Protein content in the cells was measured by Lowry method (J Biol Chem. 1951; 193(1): 265-75) by using the cell lysis solution, and translated into histamine incorporation amount per protein content for each experiment. A histamine incorporation rate (%) in the presence of 30 μM of the test substance was calculated by regarding a histamine incorporation amount in a case of no incorporation inhibitor as 100% (control) of histamine incorporation rate. A value (%) obtained by subtracting the histamine incorporation rate from 100(%) was calculated as an OCT3 inhibition rate (%).
Note that a histamine incorporation rate (%) in the presence of 10 μM of the test substance was calculated by regarding a histamine incorporation amount in a case of no incorporation inhibitor as 100% (control) of histamine incorporation rate. A value (%) obtained by subtracting the histamine incorporation rate from 100(%) was calculated as an OCT3 inhibition rate (%). […]

[2] = molecular target: T1, human organic cation transporter 3 (hOCT3); assay: as above; type: cell-based; conditions: control curve; for IC80: HEK293

Compound: NC(N)=Nc1nc(CS/C(N)=N\S(N)(=O)=O)cs1 [SR-3155]
OCT3 Inhibition Rate (%) [1]: −10.3%

Compound: N#C/N=C(\N)NCCCCc1csc(N=C(N)N)n1 [SR-2069]
remaining activity at 30 µM [1]: 48.6%
inhibition at 30 µM [1]: 51.4%

Compound: NC(N)=Nc1nc(CNCCc2ccc(F)cc2)cs1 [SR-3136]
OCT3 Inhibition Rate (%) [1]: 28.6%

Compound: Cc1nc(CCSCc2ccnc(N=C(N)N)c2)[nH]c(=O)c1CCc1ccccc1 [SR-2219]
remaining activity at 10 µM [1]: 51.5%
remaining activity at 30 µM [1]: 22.6%
inhibition at 10 µM [1]: 48.5%
inhibition at 30 µM [1]: 77.4%
IC80 [2]: 49 µM
IC50 [2]: 19 µM

Compound: Cc1nc(CCCOc2cc(N=C(N)N)ccn2)[nH]c(=O)c1CCc1ccccc1 [SR-2064]
OCT3 Inhibition Rate (%) [1]: 17.5%

Compound: NC(N)=Nc1nc(CCCC/C(N)=N/S(=O)(=O)C(F)(F)F)cs1 [SR-2065]
remaining activity at 10 µM [1]: 72.9%
remaining activity at 30 µM [1]: 41.5%
inhibition at 10 µM [1]: 27.1%
inhibition at 30 µM [1]: 58.5%
IC80 [2]: 90 µM
IC50 [2]: 24 µM

Compound: NC(N)=Nc1nc(COCc2ccc(F)cc2)cs1 [SR-3129]
OCT3 Inhibition Rate (%) [1]: 20.6%

Compound: NC(N)=Nc1nc(CCCCNC(=O)CO)cs1 [SR-2073]
remaining activity at 30 µM [1]: 52.9%
inhibition at 30 µM [1]: 47.1%

Compound: Cc1nc(CCCCc2csc(N=C(N)N)n2)[nH]c(=O)c1CCc1ccccc1 [SR-2076]
remaining activity at 10 µM [1]: 14.8%
remaining activity at 30 µM [1]: 11.8%
inhibition at 10 µM [1]: 85.2%
inhibition at 30 µM [1]: 88.2%
IC80 [2]: 8 µM
IC50 [2]: 1.9 µM

Compound: CNCCCCc1csc(N=C(N)N)n1 [SR-2204]
OCT3 Inhibition Rate (%) [1]: 3.4%

Compound: N=C(N)NCCCCc1csc(N=C(N)N)n1 [SR-2071]
OCT3 Inhibition Rate (%) [1]: 27.0%

Compound: Cc1nc(CCSCc2ccc([N+](=O)[O-])n2Cc2ccccc2)[nH]c(=O)c1CCc1ccccc1 [SR-2235]
OCT3 Inhibition Rate (%) [1]: 8.7%

Compound: Cc1nc(CCSCc2csc(N=C3NCCN3)n2)[nH]c(=O)c1CCc1ccccc1 [SR-2213]
OCT3 Inhibition Rate (%) [1]: 45.8%

Compound: NC(N)=Nc1nc(CCCc2ccc(F)cc2)cs1 [SR-3131]
OCT3 Inhibition Rate (%) [1]: 22.3%

Compound: Cc1[nH]c(CCSCc2cscn2)nc(=O)c1CCc1ccccc1 [SR-3003]
OCT3 Inhibition Rate (%) [1]: 40.6%

Compound: N=C(N)NCc1csc(N=C(N)N)n1 [SR-2236]
OCT3 Inhibition Rate (%) [1]: −1.4%

Compound: Cc1nc(CSCCc2nc(=O)c(CCc3ccccc3)c(C)[nH]2)cs1 [SR-2239]
OCT3 Inhibition Rate (%) [1]: 33.2%

Compound: N=C(NCc1csc(N=C(N)N)n1)NS(N)(=O)=O [SR-3154]
OCT3 Inhibition Rate (%) [1]: −11.5%

Compound: Cc1nc(CCSCc2cccc(N=C(N)N)n2)[nH]c(=O)c1CCc1ccccc1 [SR-2036]
remaining activity at 10 µM [1]: 33.7%
remaining activity at 30 µM [1]: 15.4%
inhibition at 10 µM [1]: 66.3%
inhibition at 30 µM [1]: 84.6%
IC80 [2]: 27 µM
IC50 [2]: 5.9 µM

Compound: CNC(=O)CCCCc1csc(N=C(N)N)n1 [SR-2075]
OCT3 Inhibition Rate (%) [1]: 23.9%

Compound: NC(N)=Nc1nc(CCCC/C(N)=N/S(N)(=O)=O)cs1 [SR-2066]
remaining activity at 30 µM [1]: 58.1%
inhibition at 30 µM [1]: 41.9%

Compound: Cc1nc(CCSCc2csc(N(C)C)n2)[nH]c(=O)c1CCc1ccccc1 [SR-2011]
OCT3 Inhibition Rate (%) [1]: 37.9%

Compound: NC(N)=Nc1nc(CSc2ccc(F)cc2)cs1 [SR-3123]
OCT3 Inhibition Rate (%) [1]: 47.2%

Compound: NC(N)=Nc1nc(CS/C(N)=N/S(=O)(=O)C(F)(F)F)cs1 [SR-3159]
OCT3 Inhibition Rate (%) [1]: 6.2%

Results, then the compound that gave them:

OCT3 Inhibition Rate (%) [1]: 17.6%
Compound: Cc1nc(CSCC/C(N)=N/S(N)(=O)=O)cs1 [SR-2228]

OCT3 Inhibition Rate (%) [1]: 43.0%
Compound: CCCCN/C(N)=N/c1nc(CSCCC(=N)N)cs1 [SR-3209]

remaining activity at 10 µM [1]: 56.6%
remaining activity at 30 µM [1]: 35.2%
inhibition at 10 µM [1]: 43.4%
inhibition at 30 µM [1]: 64.8%
IC80 [2]: 56 µM
IC50 [2]: 12.4 µM
Compound: NC(N)=Nc1nc(CSCCNC(=O)CO)cs1 [SR-2045]

remaining activity at 30 µM [1]: 55.8%
inhibition at 30 µM [1]: 44.2%
Compound: NC(N)=Nc1cc(CSCCC(N)=NS(N)(=O)=O)ccn1 [SR-2229]

OCT3 Inhibition Rate (%) [1]: 7.9%
Compound: CN/C(=C\[N+](=O)[O-])NCCSCc1csc(N=C(N)N)n1 [SR-2044]

OCT3 Inhibition Rate (%) [1]: 38.8%
Compound: NC(N)=Nc1nc(CSCCc2ncc(CCc3ccccc3)o2)cs1 [SR-2051]

OCT3 Inhibition Rate (%) [1]: −7.4%
Compound: Cc1nc(CSCC/C(N)=N/S(=O)(=O)C(F)(F)F)cs1 [SR-2238]

OCT3 Inhibition Rate (%) [1]: 13.8%
Compound: CSc1nc(CSCCC(N)=NS(N)(=O)=O)cs1 [SR-2227]

OCT3 Inhibition Rate (%) [1]: 33.3%
Compound: NC(N)=Nc1nc(CSCCc2ccc(F)cc2)cs1 [SR-3137]

OCT3 Inhibition Rate (%) [1]: 25.4%
Compound: NC(N)=Nc1cccc(CSCC/C(N)=N/S(=O)(=O)C(F)(F)F)c1 [SR-2020]

OCT3 Inhibition Rate (%) [1]: 22.2%
Compound: NC(N)=Nc1ncc(CSCCC(N)=NS(=O)(=O)c2ccccc2)s1 [SR-3203]

OCT3 Inhibition Rate (%) [1]: 4.7%
Compound: N=C(N)CCSCc1ccc([N+](=O)[O-])o1 [SR-2233]

remaining activity at 30 µM [1]: 41.4%
inhibition at 30 µM [1]: 58.6%
Compound: NC(N)=Nc1cccc(CSCCC(N)=NS(N)(=O)=O)n1 [SR-2230]

remaining activity at 10 µM [1]: 50%
remaining activity at 30 µM [1]: 21%
inhibition at 10 µM [1]: 50%
inhibition at 30 µM [1]: 79%
IC80 [2]: 30 µM
IC50 [2]: 10.5 µM
Compound: NC(N)=Nc1cccc(CSCC/C(N)=N/S(=O)(=O)C(F)(F)F)n1 [SR-2022]

OCT3 Inhibition Rate (%) [1]: 50.2%
Compound: N=C(N)CCSCc1ccc([N+](=O)[O-])n1Cc1ccccc1 [SR-2234]

OCT3 Inhibition Rate (%) [1]: 30.4%
Compound: CC(=O)NC(=O)CCSCc1csc(N=C(N)N)n1 [SR-2225]

OCT3 Inhibition Rate (%) [1]: −14.7%
Compound: NC(CCSCc1cscn1)=NS(N)(=O)=O [SR-3001]

OCT3 Inhibition Rate (%) [1]: 61.5%
Compound: NC(N)=Nc1nc(CSCCC(N)=NS(=O)(=O)C(F)(F)F)cs1 [SR-2216]

OCT3 Inhibition Rate (%) [1]: 28.5%
Compound: N=C(N)CCCCc1csc(N=C(N)N)n1 [SR-2068, 5-[2-(diaminomethyleneamino)thiazole-4-yl]pentaimideamide]

remaining activity at 10 µM [1]: 36.7%
remaining activity at 30 µM [1]: 15%
inhibition at 10 µM [1]: 63.3%
inhibition at 30 µM [1]: 85%
IC80 [2]: 28 µM
IC50 [2]: 6.5 µM
Compound: NC(N)=Nc1cc(CSCC/C(N)=N/S(=O)(=O)C(F)(F)F)ccn1 [SR-2023]

OCT3 Inhibition Rate (%) [1]: 6.7%
Compound: CC(C)c1nc(CSCCC(N)=NS(N)(=O)=O)cs1 [SR-2207, (Z)-3-((2-isopropylthiazol-4-yl)methylthio)-N′-sulfamoylpropanimidamide]

OCT3 Inhibition Rate (%) [1]: 21.8%
Compound: NC(N)=Nc1nc(CSCCC(=O)NC(=O)c2ccccc2)cs1 [SR-2226]

OCT3 Inhibition Rate (%) [1]: −4.0%
Compound: CC(C)c1nc(CSCCC(N)=NS(=O)(=O)C(F)(F)F)cs1 [SR-3021]

OCT3 Inhibition Rate (%) [1]: −0.2%
Compound: NC(CCSCc1cscn1)=NS(=O)(=O)C(F)(F)F [SR-3002]

OCT3 Inhibition Rate (%) [1]: 8.7%
Compound: N=C(N)CCSCc1csc(N=C2NCCN2)n1 [SR-3208]

OCT3 Inhibition Rate (%) [1]: 16.3%
Compound: CNC(=O)CCSCc1csc(N=C(N)N)n1 [SR-2203]

OCT3 Inhibition Rate (%) [1]: −8.1%
Compound: CSc1nc(CSCCC(N)=NS(=O)(=O)C(F)(F)F)cs1 [SR-3012]

OCT3 Inhibition Rate (%) [1]: −7.8%
Compound: CN(C)c1nc(CSCC/C(N)=N/S(=O)(=O)C(F)(F)F)cs1 [SR-2005]
